{
  "source": "patent US11766060B2",
  "about": "“Compositions comprising mogrosides, steviol glycosides and glycosylated derivatives thereof and methods of enhancing the mouthfeel or sweetness of consumables” (Sweet Green Fields, LLC, priority 2016, dated 2023)",
  "key": {"[1]": {"conditions": "pure thaumatin; cited from earlier work"}, "[2]": {"assay": "Evaluation of the sweetness detection threshold (8 panelists rate sweet / not sweet)", "format": "in vivo, human", "conditions": "at a 1 ppm level", "from_the_text": "The phrase “sweetness detection threshold” refers to the minimum concentration at which panelists consisting of 8 persons are able to detect sweetness in a composition, liquid or solid. This is further defined as provided in the Examples herein.\nThreshold of sweetness refers to a concentration of a material that below a concentration where sweetness can be detected may still impart a flavor to the consumable (including water). When half of a trained panel of testers determines something is “sweet” at a given concentration, then the sample meets the threshold. When less than half of a panel of testers cannot discern sweetness at a given concentration, then concentrations of the substance below the sweetness level are considered a flavoring.\nTo evaluate the sweetness potency of various concentrations of GMG or MGV in aqueous solutions, aqueous solutions of GMG and MGV at various concentrations were prepared and were evaluated at room temperature. The sample solutions were evaluated by 8 panelists that were previously qualified for their taste acuity. Samples coded with triple digit numbers were given to a panelist randomly. Panelists tasted the samples randomly. After tasting a sample, every panelist was required to wash their mouth with water and rest for 60 seconds. Panelists gave ratings of “sweet” or “not sweet” to each sample."}, "[3]": {"assay": "Evaluation of taste profile compared to reference sugar solutions by panel (Example 3 method)", "format": "in vivo, human", "conditions": "inclusion of thaumatin", "experimental": "I. The components where mixed and then dissolved in aqueous citric acid (pH 3.8) with ultrasound at room temperature and left to equilibrate for 30 minutes.\nThe sample solutions were evaluated by 8 panelists that have been previously qualified for their taste acuity. Samples coded with triple digit numbers were given to the panelist randomly. Panelists tasted the samples randomly. After tasting a sample, every panelist was required to rinse their mouth with water and rest for 60 seconds. For the sweetness evaluation of each sample, the sample was tested in pairs with several sugar solutions of given sweetness, such as 5%, 6%, 7%, 8%, 9%, or 10% as standard reference samples. The sweetness of each sample was compared with those of the reference sugar solutions, and the sweetness was evaluated and recorded according to the judgment that the sweetness of the sample was similar to a specific sugar solution or between specific sugar solutions. The results were recorded as the mean value of the results provided by the panels.\nFor evaluation of taste profile, the samples were tested and were compared to reference sugar solutions. Panelists judged if the taste profile of sample solutions were similar to that of sugar."}},
  "data": [
    {"substance": "thaumatin", "values": [
      {"measurement": "sweetness threshold", "setting": "[1]", "value": 7, "unit": "ppm"},
      {"measurement": "sweetness imparted to a composition", "setting": "[2]", "value": "no sweetness"},
      {"measurement": "taste profile of MGV", "setting": "[3]", "value": "improved"}
    ]}
  ]
}
